# Experimental data as given in patent publication US7833722B2, “Ligands for G protein-coupled receptor protein and use thereof” (Takeda Pharmaceutical Company Limited, priority 2004, dated 2010).
# Biological target: GPR17-GFP fusion protein (UniProt P42212+Q13304, F64L/I167T/S65C)
# Assay: Movement of GPR17-GFP fusion protein expressed in CHO cells into cells (confocal microscope)
# Assay type: cell-based, human
# Details: 100 μM, 45 minutes, 37° C.
smiles,measurement,value
"NCC(=O)CCC(=O)O [ALA, 5-aminolevulinic acid]",localization of GPR17-GFP fusion protein (fluorescent images of GFP),moved in part to the cytoplasm
